Here are results for one molecule from paper PMC5086648, “Structural and Functional Elucidation of Peptide Ts11 Shows Evidence of a Novel Subfamily of Scorpion Venom Toxins” (Toxins, 2016).

SMILES strings stand for the structures. Bridge positions count the residues as written; N and C are the ends. Peptide text beside a SMILES is read from it.

Usually IC50 stands for the concentration needed to halve the response being measured.

Data set [1] has as its system Kv1.2 (rKV1.2). Nature of the data set: TEVC electrophysiology, Kv1.2 in Xenopus oocytes. It counts as cell-based, rat. The text has this: (§1) For the expression of the voltage gated potassium channels (rKV1.1, rKV1.2, hKV1.3, rKV1.4, rKV1.5, rKV1.6, Shaker IR, rKV2.1, hKV3.1, rKV4.2, hERG, KV10.1) and the voltage gated sodium channels (rNaV1.1, rNaV1.4, hNaV1.5, mNaV1.6 and DmNav1) in Xenopus oocytes, the linearized plasmids were transcribed using the T7 or SP6 mMESSAGE-mMACHINE transcription kit (Ambion, Waltham, MA, USA). The harvesting of stage V–VI oocytes from anaesthetized female X. laevis frog has been previously described. Oocytes were injected with 30–50 nL of cRNA at a concentration of 1 ng/nL using a micro-injector (Drummond Scientfic, Broomall, PA, USA). The oocytes were incubated in a solution containing (in mM): NaCl, 96; KCl, 2; CaCl2, 1.8; MgCl2, 2 and HEPES, 5 (pH 7.4), supplemented with 50 mg/L gentamycin sulfate.
(§2) Two-electrode voltage-clamp recordings were performed at room temperature (18–22 °C) using a Geneclamp 500 amplifier (Molecular Devices, Silicon Valley, CA, USA) controlled by a pClamp data acquisition system (Axon Instruments, Union City, CA, USA). Whole cell currents from oocytes were recorded 1–10 days after injection. Bath solution composition was ND96 (in mM): NaCl, 96; KCl, 2; CaCl2, 1.8; MgCl2, 2 and HEPES, 5 (pH 7.4) (in mM): NaCl, 2; KCl, 96; CaCl2, 1.8; MgCl2, 2 and HEPES, 5 (pH 7.4). […]

Data set [2] addresses T1, Kv1.3 (hKV1.3) (Homo sapiens, UniProt P22001).
T1 construct: expressed in transfected cells; host or cells: Xenopus laevis oocytes injected with cRNA
Nature of the data set: TEVC electrophysiology, Kv1.3 in Xenopus oocytes. The format is cell-based.
Description: as §1
Two-electrode voltage-clamp recordings were performed at room temperature (18–22 °C) using a Geneclamp 500 amplifier (Molecular Devices, Silicon Valley, CA, USA) controlled by a pClamp data acquisition system (Axon Instruments, Union City, CA, USA). Whole cell currents from oocytes were recorded 1–10 days after injection. Bath solution composition was ND96 (in mM): NaCl, 96; KCl, 2; CaCl2, 1.8; MgCl2, 2 and HEPES, 5 (pH 7.4) (in mM): NaCl, 2; KCl, 96; CaCl2, 1.8; MgCl2, 2 and HEPES, 5 (pH 7.4). Voltage and current electrodes were filled with KCl 3 M. Resistances of both electrodes were kept between […]. The elicited currents were sampled at 1 kHz and filtered at 0.5 kHz (for potassium currents) or sampled at 20 kHz and filtered at 2 kHz (for sodium currents) using a four-pole low-pass Bessel filter. Leak subtraction was performed using a -P/4 protocol.
The KV1.1–KV1.6, KV2.1, KV3.1 and KV4.2 and Shaker IR currents were evoked by 250 ms depolarizations to 0 mV followed by a 250 ms pulse to −50 mV, from a holding potential of −90 mV. Current traces of hERG channels were elicited by applying a pulse from −90 mV to +40 mV for 2.5 s followed by a step to −120 mV for 2.5 s. The Kv 10.1 currents were evoked by 1 s depolarization to 0 mV, from a holding potential of −90 mV. Sodium current traces were evoked, from a holding potential of −90 mV, by 100 ms depolarization to 0 mV. In order to investigate the current-voltage relationship, current traces were evoked by 10 mV depolarization steps from a holding potential of −90 mV.
To assess the concentration-response relationship of Ts11 on Kv1.3, data were fitted with the Hill equation: y = 100/[1 + (IC50/[toxin])^h], where y is the amplitude of the toxin-induced effect, IC50 is the toxin concentration at half maximal efficacy, [toxin] is the toxin concentration and h is the Hill coefficient (Hill coefficient: 0.8). Current-voltage relationship was determined by 100 ms step depolarization between −90 and +70 mV, using 10 mV increments. All data represent at least 3 independent experiments (n = 3) and are presented as mean ± standard error.

The subject of data set [3] is Kv4.2 (rKV4.2). Nature of the data set: TEVC electrophysiology, Kv4.2 in Xenopus oocytes. The format is cell-based, rat.
Description: as §1, §2

For data set [4], the system named is Kv10.1. Kind of data set: TEVC electrophysiology, Kv10.1 in Xenopus oocytes. It counts as cell-based. The following applies: 3 μM, native toxin, two-electrode voltage-clamp, ND96 pH 7.4, 18–22 °C, 1 s depolarization to 0 mV from −90 mV, n ≥ 3.
Description: as §1, §2

Data set [5] relates to hERG. Kind of data set: TEVC electrophysiology, hERG in Xenopus oocytes. It counts as cell-based.
Description: as §1, §2
On the technique in general: hERG is a cardiac potassium channel; its block is linked to QT prolongation.

The subject of data set [6] is Shaker IR. Kind of data set: TEVC electrophysiology, Shaker IR in Xenopus oocytes. The format is cell-based. The following applies: 3 μM, native toxin, two-electrode voltage-clamp, ND96 pH 7.4, 18–22 °C, 250 ms depolarizations to 0 mV from −90 mV, n ≥ 3.
Description: as §1, §2

Data set [7] relates to Nav1.1 (rNaV1.1). Nature of the data set: TEVC electrophysiology, Nav1.1 in Xenopus oocytes. The format is cell-based, rat. The following applies: 1 μM, two-electrode voltage-clamp, 100 ms depolarization to 0 mV from −90 mV, number of cells ≥ 3.
Description: as §1, §2
For orientation: Two-electrode voltage clamp is typically applied to oocytes expressing channels or transporters.

For data set [8], the system named is Nav1.4 (rNaV1.4). Kind of data set: TEVC electrophysiology, Nav1.4 in Xenopus oocytes. The format is cell-based, rat. The following applies: 1 μM, two-electrode voltage-clamp, 100 ms depolarization to 0 mV from −90 mV, number of cells ≥ 3.
Description: as §1, §2

The subject of data set [9] is Nav1.5 (hNaV1.5). Kind of data set: TEVC electrophysiology, Nav1.5 in Xenopus oocytes. It counts as cell-based, human. The following applies: 1 μM, two-electrode voltage-clamp, 100 ms depolarization to 0 mV from −90 mV, number of cells ≥ 3.
Description: as §1, §2

Data set [10] deals with Nav1.6 (mNaV1.6). Kind of data set: TEVC electrophysiology, Nav1.6 in Xenopus oocytes. The following applies: 1 μM, two-electrode voltage-clamp, 100 ms depolarization to 0 mV from −90 mV, number of cells ≥ 3. It counts as cell-based, mouse.
Description: as §1, §2

Data set [11] relates to DmNav1. Kind of data set: TEVC electrophysiology, DmNav1 in Xenopus oocytes. The format is cell-based, insect. The following applies: 1 μM, two-electrode voltage-clamp, 100 ms depolarization to 0 mV from −90 mV, number of cells ≥ 3.
Description: as §1, §2

In data set [12] the test system is Kv channels. Nature of the data set: TEVC electrophysiology, Kv channel panel in Xenopus oocytes. The following applies: discussion, Kv channels overall. It counts as cell-based.
Description: as §1, §2

For data set [13], the system named is Nav channels. Kind of data set: TEVC electrophysiology, Nav channel panel in Xenopus oocytes. The following applies: discussion; tested at 1 μM. It counts as cell-based.
Description: as §1, §2

The mark [14] stands for this setting: 3 μM, native toxin, two-electrode voltage-clamp, Xenopus oocytes, ND96 pH 7.4, 18–22 °C, 250 ms depolarizations to 0 mV from −90 mV, n ≥ 3.
[15] abbreviates: 5 μM, compared with 3 μM, data not shown.

T1 sequence (P22001 whole entry): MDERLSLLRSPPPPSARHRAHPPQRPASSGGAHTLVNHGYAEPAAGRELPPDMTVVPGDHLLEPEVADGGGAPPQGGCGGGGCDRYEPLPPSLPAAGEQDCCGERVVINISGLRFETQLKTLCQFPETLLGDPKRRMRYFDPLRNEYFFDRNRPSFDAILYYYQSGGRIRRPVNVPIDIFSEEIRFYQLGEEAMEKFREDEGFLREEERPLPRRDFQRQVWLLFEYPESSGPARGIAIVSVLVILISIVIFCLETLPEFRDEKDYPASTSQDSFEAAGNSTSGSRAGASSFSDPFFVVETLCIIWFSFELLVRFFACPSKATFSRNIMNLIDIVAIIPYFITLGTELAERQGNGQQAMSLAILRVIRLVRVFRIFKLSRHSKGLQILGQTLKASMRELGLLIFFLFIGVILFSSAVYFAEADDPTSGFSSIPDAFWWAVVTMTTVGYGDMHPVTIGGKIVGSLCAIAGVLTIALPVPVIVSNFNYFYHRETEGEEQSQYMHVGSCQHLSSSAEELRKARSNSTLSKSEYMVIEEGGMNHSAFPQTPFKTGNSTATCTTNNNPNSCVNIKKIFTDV

In the case of `CC(C)C[C@@H]1NC(=O)CNC(=O)[C@@H](NC(=O)[C@H](CCCCN)NC(=O)[C@@H]2CCCN2C(=O)[C@@H](N)CCCCN)CSSC[C@@H]2NC(=O)[C@@H]3CSSC[C@@H]4NC(=O)[C@H](CCCCN)NC(=O)CNC(=O)[C@H](CO)NC(=O)[C@H](CO)NC(=O)[C@H](CSSC[C@H](NC(=O)[C@H](C)NC(=O)CNC(=O)[C@H](CC(N)=O)NC(=O)[C@H](C(C)C)NC4=O)C(=O)N[C@@H](CC(=O)O)C(=O)N[C@H](C(=O)N[C@@H](CO)C(=O)O)CSSC[C@H](NC1=O)C(=O)N[C@@H](CCCNC(=N)N)C(=O)N[C@@H](Cc1ccc(O)cc1)C(=O)N[C@@H](CCCNC(=N)N)C(=O)N3)NC(=O)CNC(=O)CNC(=O)[C@H](CO)NC2=O` [Ts11] (H-KPKCGLCRYRCCSGGCSSGKCVNGACDCS-OH; disulfide 4-12, 7-28, 11-21, 16-26; N-terminus and C-terminus assumed), the “blocking effect on Kv1.2” value in data set [1] (setting [14]) came to 25%. Moreover, the “increase in blockage at higher concentration, Kv1.2” value in data set [1] (setting [15]) was “no significant increase in blockage”. The “blocking effect on Kv1.3” value in [2] (setting [14]) came out at 27%. Moreover, the “alteration of channel activation properties (Kv1.3)” value in [2] (5 μM, V1/2 with toxin vs control) is listed as “No significant alteration of properties of channel activation”. Besides, in data set [2] (concentration-response fit, Hill equation, n ≥ 3), the “Hill coefficient, Kv1.3” value was 0.8. Further, the half-maximal inhibitory concentration (IC50) in data set [2] (concentration-response, Hill equation fit, two-electrode voltage-clamp, Xenopus oocytes, pH 7.4, 18–22 °C, mean ± standard error, n ≥ 3, read-out: IC50, inhibition of Kv1.3 currents) is 17.1 ± 3.3 µM. Moreover, in [2] (toxin condition, 5 μM (Figure 3B), normalized peak Itail, control 17.3 ± 0.6 mV, n ≥ 3, mean ± standard error), the “V1/2 of Kv1.3 activation” value was 17.6 ± 0.7 mV. In addition, the “blocking effect on Kv4.2” value in [3] (setting [14]) was determined as 25%. The “increase in blockage at higher concentration, Kv4.2” value in data set [3] (setting [15]) is listed as “no significant increase in blockage”. Further, the “blocking effect on Kv10.1” value in data set [4] is on record as 15%. Further, the “blocking effect on hERG” value in data set [5] (3 μM, native toxin, two-electrode voltage-clamp, Xenopus oocytes, pH 7.4, 18–22 °C, pulse −90 mV to +40 mV for 2.5 s, step to −120 mV for 2.5 s, n ≥ 3) is 12%. In data set [5] (10 μM, compared with 3 μM, data not shown), the “increase in blockage at higher concentration, hERG” value was “no significant increase in blockage”. Also, the “blocking effect on Shaker IR” value in data set [6] was 10%. Moreover, in [7], the “activity on Nav1.1” value was “inactive”. The “activity on Nav1.4” value in data set [8] was “inactive”. The “activity on Nav1.5” value in [9] was “inactive”. In data set [10], the “activity on Nav1.6” value was “inactive”. The “activity on insect channel DmNav1” value in data set [11] was “inactive”. In data set [12], the “effect on kinetics of Kv channel gating” value is recorded as “without altering the kinetics of channel gating” and the “potency as Kv channel blocker (in words)” value is “not a potent blocker of Kv channels”. Moreover, the “activity on Nav channels overall (in words)” value in [13] is “does not target Nav channels”.
